Where a SMILES comes first, the peptide text is derived from it. [ ]: non-standard residue; d: D form. pGlu = O=C1CC[C@@H](C(=O)O)N1
System: release of LH by the anterior pituitary in fish
Experiment: in vivo salmon assay, radioimmunoassay for LH level in blood
Settings: salmon of about 2 kg, about 10 μg injected per fish, blood taken about 2 hours after injection, same amount of mammalian GnRH as comparator
Description: The peptide is assayed in vivo using salmon having an average weight of about 2 kg, and each fish is injected with about 10 μg. Additional fish are injected with the same amount of mammalian GnRH. Both sets are then compared with controls. About 2 hours following injection, the salmon are sacrificed, and the blood withdrawn for specific radioimmunoassay for LH level.

CCNC(=O)[C@@H]1CCCN1C(=O)[C@H](CC(C)C)NC(=O)[C@H](Cc1c[nH]c2ccccc12)NC(=O)[C@@H](C)NC(=O)[C@H](Cc1ccc(O)cc1)NC(=O)[C@H](CO)NC(=O)[C@H](Cc1c[nH]c2ccccc12)NC(=O)[C@H](Cc1c[nH]cn1)NC(=O)[C@@H]1CCC(=O)N1 [Peptide 1, pGlu--His--Trp--Ser--Tyr--D--Ala--Trp--Leu--Pro--NHCH2 CH3] ([pGlu]HWSY[dA]WLP-NHEt)
potency in causing the release of LH by the anterior pituitary, compared with mammalian GnRH: substantially more potent than mammalian GnRH

— US4410514A, “GnRH Agonists” (The Salk Institute for Biological Studies, priority 1982, dated 1983)
